The values that follow are results of earlier work, collected in US8735422B2, “Cationic pharmaceutically active ingredient containing composition, and methods for manufacturing and using” (Skinvisible Pharmaceuticals, Inc., priority 2009, dated 2014).

For data set [1] the following is noted: in vivo.
[2] abbreviates: Table 4, value used for the calculation.

Read-outs that look alike come from different tables or passages of the source.

`CC(=O)O` [Acetic Acid]: the pK1 (Table 1) is 4.76.

As to `O=C(O)c1ccccc1` [Benzoic Acid], for the setting “Table 1”, the pK1 was 4.21. For the compound `O=C(O)CCCCCCCCCCC(=O)O` [Dodecandioic], where the note is “Table 1”, the pK1 is 4.5 and the pK2 was 4.5. For the compound `O=C(O)[C@H](O)[C@@H](O)[C@H](O)[C@H](O)CO` [Gluconic Acid], the pK1 (Table 1) is reported as 3.86. Take `CC(C)Cn1cnc2c(N)nc3ccccc3c21` [Imiquimod, reference compound]: under setting [2], the pK is given as 4.49. For the compound `CCCCCCCCCCCC(=O)O` [Lauric Acid], the pK is recorded as 5.3. Further, the pK1 (Table 1) is 5.3. Moreover, the pK under setting [2] is reported as 5.30. Regarding `CCCCCCCCCCCCCCCCCC(=O)O` [Stearic Acid], where the note is “Table 1”, the pK1 is 7.0. Take “Poly(vinylpyrrolidone/1-eicosene) [PVPE]”: the dermal toxicity entry in data set [1] is given as “no demonstrable dermal toxicity”.

Regarding “Poly(vinylpyrrolidone/1-hexadecene) [PVPH]”, the dermal toxicity result in data set [1] is “no demonstrable dermal toxicity”.
